Common to all, as to assay type: cell-based
The subject of assay [1] is phospho-Akt in Panc1 (G12D). The assay is described as follows: In-Cell Western phospho-Akt, Panc1. The conditions noted are these: Homo sapiens, PANC-1, 1 h; Panc1, one hour treatment; read-out: In-Cell Western Panc1 (G12D) Akt (P). An outline of the steps: (§1)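 Following an 18 hr settle at 37° C, seeded cells receive test compound for 1 hr before fixation and staining with phospho-Akt and phospho-ERK primary antibodies (overnight, 4° C) plus a goat anti-rabbit secondary. Plates are imaged and fluorescence quantitated to give EC50.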

For the next assay, the system named is Panc1-G12D. Nature of the assay: Viability assay (CellTiterBlue, 72 hr) Panc1. The conditions noted are these: Homo sapiens, PANC-1, GI50, CellTiterBlue, Panc1 K-Ras G12D, read-out: 72 hr Cell Viability Panc1 (G12D). Put shortly:
(§2)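 GI50 calculation uses a window set by DMSO-treated wells (100% viability) and 100 uM tamoxifen (0%). Cells (1000/well) sit 18 hr at 37 °C, receive compound for 72 hr in 0.5% DMSO, then get CellTiterBlue for 3 hr before reading at Ex550/Em590.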
Background: Alamar Blue is a resazurin reagent that responds to reducing activity.

The test system of assay [2] is A375 (K-Ras wild type cell line). Nature of the assay: Viability assay (CellTiterBlue, 72 hr) A375. Particulars: Homo sapiens, A-375, GI50, CellTiterBlue. The method, then:
Viability assays were performed on exemplary compounds and Table 2 below lists exemplary results for selected compounds tested on K-Ras wild type cell lines (Ishikawa, U87-MG, HCC827, and A375) and various K-Ras mutant cell lines (Panc1-G12D; Panc10.05-G12D; HCT116-G31D). Results are expressed in μM and corresponding structures are shown in FIGS. 2A-2G and Examples 1-152, above.
Cells are counted and seeded at 1000 cells/36 ul medium/well into 384-well microplates. Cells are returned to 37° C. CO2 incubator for 18 hr. Drug is made as 200× in DMSO and diluted into medium to 10×. To each well is added 4 ul 10× drug, and plates are returned to the incubator. Final assay DMSO concentration is 0.5%. After 72 hr, 8 ul CellTiterBlue (Promega) is added to each well. After 3 hr, fluorescence (Ex550/Em590) is determined on the Victor Plate Reader (Perkin Elmer). Assay range is determined by DMSO control (100% viability) and 100 uM tamoxifen (0% viability). GI50 values are calculated using Graphpad Prism.

The test system of assay [3] is phospho-ERK in A375 (Wild-type). The assay is described as follows: In-Cell Western phospho-ERK, A375. Particulars: Homo sapiens, A-375, 1 h; A375, one hour treatment; read-out: In-Cell Western A375 (Wild-type) Erk (P). The method, then:
(§3) In-cell phosphorylation assays for Erk and Akt were performed on several of the compounds and exemplary results are shown in Table 3 below using HCC827 and A375 cell lines for wild type K-Ras and Panc1 and Panc10.05 cell lines for G12D K-Ras mutants. Results are expressed in μM and corresponding structures are shown in FIGS. 2A-2G and Examples 1-152, above.
(§4) Cells are seeded in complete medium into black sided, clear-bottom 384-well microplates at 3000 cells/[…]/well. Plates are returned to 37° C. CO2 incubator for 18 hr. Drug is made as 200× in DMSO and diluted into medium to 10×. To each well is added 4 ul 10× test article or controls, and plates are returned to the incubator. Final assay DMSO concentration is 0.5%. After one hour, cells are fixed in formaldehyde, rinsed & permeabilized with triton X-100, and blocked with BSA/Goat serum blocking solution. Primary phospho-Akt and phospho-ERK antibodies are added and plates are incubated overnight at 4° C. Plates are rinsed with Tween-20 wash buffer and secondary antibody (Goat anti-rabbit, Thermofisher) is added. After 2 hours, plates are rinsed in Tween-20 wash buffer, and then PBS. Plates are imaged on the Celigo (Nexcelom) and cellular fluorescence is quantitated. Full inhibition of phospho-Akt is achieved with 1 uM BEZ235 (Sellekchem), while full inhibition of phospho-ERK is achieved with 1 uM MEK Inhibitor II Calbiochem). EC50 values are calculated using Graphpad Prism.

Assay [4] relates to phospho-ERK in Panc1 (G12D). The assay is described as follows: In-Cell Western phospho-ERK, Panc1. Particulars: Homo sapiens, PANC-1, 1 h; Panc1, one hour treatment; read-out: In-Cell Western Panc1 (G12D) Erk (P). Put shortly:
as §1

The subject of assay [5] is phospho-ERK in Panc10.05 (G12D). The assay is described as follows: In-Cell Western phospho-ERK, Panc10.05. The conditions noted are these: Homo sapiens, Panc1005, 1 h; Panc10.05, one hour treatment; read-out: In-Cell Western Panc10.05 (G12D) Erk (P). An outline of the steps:
as §1

The test system of assay [6] is HCC827 (K-Ras wild type cell line). The assay is described as follows: Viability assay (CellTiterBlue, 72 hr) HCC827. Particulars: Homo sapiens, GI50, CellTiterBlue, HCC827 K-Ras wild-type. An outline of the steps:
as §2

The test system of a further assay is Panc10.05-G12D. The assay is described as follows: Viability assay (CellTiterBlue, 72 hr) Panc10.05. Particulars: Homo sapiens, Panc1005, GI50, CellTiterBlue, Panc10.05 K-Ras G12D, read-out: 72 hr Cell Viability Panc10.05 (G12D). Put shortly:
as §2

Assay [7] deals with Ishikawa (K-Ras wild type cell line). Nature of the assay: Viability assay (CellTiterBlue, 72 hr) Ishikawa. The conditions noted are these: Homo sapiens, GI50, CellTiterBlue, Ishikawa K-Ras wild-type. An outline of the steps:
as §2

Assay [8] relates to U87-MG (K-Ras wild type cell line). Nature of the assay: Viability assay (CellTiterBlue, 72 hr) U87-MG. The conditions noted are these: Homo sapiens, U-87 MG, GI50, CellTiterBlue, U87-MG K-Ras wild-type. Put shortly: as §2
The test system of assay [9] is phospho-ERK in HCC827 (Wild-type). Nature of the assay: In-Cell Western phospho-ERK, HCC827. The conditions noted are these: Homo sapiens, 1 h; HCC827, one hour treatment; read-out: In-Cell Western HCC827 (Wild-type) Erk (P). The method, then: as §3, §4
In assay [10] the test system is phospho-Akt in A375 (Wild-type). The assay is described as follows: In-Cell Western phospho-Akt, A375. Particulars: Homo sapiens, A-375, 1 h; A375, one hour treatment; read-out: In-Cell Western A375 (Wild-type) Akt (P). As for the experimental part: as §3, §4
For a further assay, the system named is HCT116-G31D. The assay is described as follows: Viability assay (CellTiterBlue, 72 hr) HCT116. Particulars: Homo sapiens, HCT-116, GI50, CellTiterBlue, HCT116 K-Ras G13D, read-out: 72 hr Cell Viability HCT116 (G13D). Put shortly:
as §2

The test system of assay [11] is phospho-Akt in Panc10.05 (G12D). The assay is described as follows: In-Cell Western phospho-Akt, Panc10.05. Particulars: Homo sapiens, Panc1005, 1 h; Panc10.05, one hour treatment; read-out: In-Cell Western Panc10.05 (G12D) Akt (P). Put shortly:
as §1

Another assay deals with T1, K-Ras G12D (Homo sapiens, UniProt P01116, G12D).
T1 construct: expressed in transfected cells; host or cells: 293H cells
T1 sequence (P01116 whole entry G12D): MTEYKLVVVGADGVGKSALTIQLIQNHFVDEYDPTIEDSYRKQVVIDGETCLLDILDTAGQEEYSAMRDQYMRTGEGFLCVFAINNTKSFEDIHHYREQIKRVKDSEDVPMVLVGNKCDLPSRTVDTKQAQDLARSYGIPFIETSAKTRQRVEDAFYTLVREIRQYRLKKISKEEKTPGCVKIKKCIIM
The assay is described as follows: G-LISA Ras activation, 293H cells transfected with G12D mutant. Particulars: compound 1 hour. Put shortly: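 293H cells were transfected with wild-type or mutant Ras plasmid (Lipofectamine 3000), then exposed next day to compounds at 3.125-25 μM for 1 hour. Wild-type transfectants received 100 ng/ml EGF for 2 minutes before ice-cold PBS wash, lysis on ice and G-LISA readout of active Ras.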

Structures are written as SMILES.

As for `Cc1nc(C)c(C(=O)Nc2nc(-c3ccc4c(c3)CCC(=O)N4Cc3cccnc3)cs2)s1` [Compound 105, 2,4-dimethyl-N-(4-(2-oxo-1-(pyridin-3-ylmethyl)-1,2,3,4-tetrahydroquinolin-6-yl)thiazol-2-yl)thiazole-5-carboxamide], the EC50 in assay [1] is greater than 25 µM; in assay [3] it was greater than 25 µM; in assay [4], 5 µM; in assay [5], 11 µM; in assay [9], 19 µM; in assay [10], greater than 25 µM. For the same compound, the EC50 in assay [11] is greater than 25 µM. The IC50 in the assay on Panc1-G12D was 12 µM; in assay [2], 25 µM; in assay [6], greater than 25 µM; with Panc10.05-G12D it was 2 µM; in [7] it was greater than 25 µM; in assay [8], greater than 25 µM. Moreover, the IC50 came out at 13 µM with HCT116-G31D and 10.4 µM at K-Ras G12D.
Regarding `CCn1nc(C2CC2)cc1C(=O)Nc1nc(-c2ccc3c(c2)CCC(=O)N3)cs1` [Compound 45, 3-cyclopropyl-1-ethyl-N-(4-(2-oxo-1,2,3,4-tetrahydroquinolin-6-yl)thiazol-2-yl)-1H-pyrazole-5-carboxamide], the EC50 in assay [1] is greater than 25 µM; in [3], greater than 25 µM; in assay [4], greater than 25 µM; in [5] it was 6 µM; in [9] it was greater than 25 µM; in assay [10] it was greater than 25 µM. In [11], the EC50 is 11 µM. In addition, the IC50 in the assay on Panc1-G12D is greater than 25 µM; in [2] it was greater than 25 µM; in [6], greater than 25 µM; in the assay with Panc10.05-G12D, 3 µM; in assay [7], greater than 25 µM; in [8], greater than 25 µM. Moreover, the IC50 in the assay with HCT116-G31D is greater than 25 µM; against K-Ras G12D, 8.8 µM.
Take `Cc1nc(C2CCCCC2)oc1C(=O)Nc1nc(-c2ccc3c(c2)CCC(=O)N3Cc2cccnc2)cs1` [Compound 101, 2-cyclohexyl-4-methyl-N-(4-(2-oxo-1-(pyridin-3-ylmethyl)-1,2,3,4-tetrahydroquinolin-6-yl)thiazole-2-yl)oxazole-5-carboxamide]: the EC50 in [1] was greater than 25 µM; in assay [3], greater than 25 µM; in [4], 18 µM; in assay [5], 3 µM; in assay [9], 14 µM; in [10] it was greater than 25 µM. Also, the EC50 in assay [11] is greater than 25 µM. The IC50 in the assay on Panc1-G12D is 2 µM; in [2], 4 µM; in assay [6], greater than 25 µM; in the assay on Panc10.05-G12D, 4 µM; in assay [7], 2 µM; in [8] it was greater than 25 µM. Moreover, the IC50 with HCT116-G31D was found to be 14 µM; on K-Ras G12D it was 9.3 µM.
On to `CCn1nccc1C(=O)Nc1nc(-c2ccc3c(c2)CCC(=O)N3)cs1` [Compound 46, 1-ethyl-N-(4-(2-oxo-1,2,3,4-tetrahydroquinolin-6-yl)thiazol-2-yl)-1H-pyrazole-5-carboxamide], for which the EC50 in assay [1] was greater than 25 µM; in assay [3], greater than 25 µM; in assay [4] it was greater than 25 µM; in [5] it was 11 µM; in assay [9], greater than 25 µM; in [10] it was greater than 25 µM. The EC50 in assay [11] turned out to be 13 µM. Moreover, the IC50 is greater than 25 µM with Panc1-G12D; greater than 25 µM in [2]; greater than 25 µM in assay [6]; 11 µM in the assay with Panc10.05-G12D; greater than 25 µM in assay [7]; greater than 25 µM in [8]. The results for the IC50 in the assay on HCT116-G31D and at K-Ras G12D were greater than 25 µM and 22.5 µM, respectively.
`Cn1nc(C(F)F)cc1C(=O)Nc1nc(-c2ccc3c(c2)CCC(=O)N3)cs1` [Compound 49, 3-(difluoromethyl)-1-methyl-N-(4-(2-oxo-1,2,3,4-tetrahydroquinolin-6-yl)thiazol-2-yl)-1H-pyrazole-5-carboxamide]: the EC50 in assay [1] is greater than 25 µM; in [3], greater than 25 µM; in [4] it was greater than 25 µM; in assay [5], 19 µM; in assay [9] it was greater than 25 µM; in assay [10] it was greater than 25 µM. In assay [11], the EC50 came out at 20 µM. Also, the IC50 (in the assay with Panc1-G12D; in [2]; in [6]; with Panc10.05-G12D; in assay [7]; in assay [8]) was greater than 25 µM throughout. In addition, the IC50 is greater than 25 µM with HCT116-G31D and 12.3 µM against K-Ras G12D.
Consider `CCc1nc(C)c(C(=O)Nc2nc(-c3ccc4c(c3)CCC(=O)N4C(C)c3cccnc3)cs2)o1` (stereo not drawn) [Compound 102, 2-ethyl-4-methyl-N-(4-(2-oxo-1-(1-(pyridin-3-yl)ethyl)-1,2,3,4-tetrahydroquinolin-6-yl)thiazol-2-yl)oxazole-5-carboxamide], for which the EC50 in assay [1] was greater than 25 µM; in assay [3], 26 µM; in assay [4], 8 µM; in assay [5] it was 19 µM; in assay [9], 11 µM; in [10], greater than 25 µM. Also, in assay [11], the EC50 is greater than 25 µM. Also, the IC50 in the assay on Panc1-G12D was greater than 25 µM; in assay [2], greater than 25 µM; in assay [6], greater than 25 µM; with Panc10.05-G12D, 5 µM; in [7] it was greater than 25 µM; in assay [8], greater than 25 µM. For the same compound, the values for the IC50 in the assay on HCT116-G31D and against K-Ras G12D were 13 µM and 8.2 µM, respectively.

The values above are taken from patent US10344026B2, “Compositions and methods of targeting mutant K-ras” (NANTBIO, INC., priority 2017, dated 2019).
